In US4879381A, “7-(substituted or unsubstituted amino) 3-substituted methyl-^3 cephem-4-carboxylic acid” (Toyoma Chemical Company, Ltd., priority 1980, dated 1989):
Converted amounts (≈) assume the structure as drawn. Counter-ions that a name gives are not always drawn. Like-named read-outs stand apart in the source and are kept apart here.

How the values were obtained:
Format in all cases: cell-based
[1] = system: Pro. vulgaris GN76 (Cephalosporinase-producing bacteria); assay: Antibacterial activity (MIC, agar plate)
Experimental: (§1) According to the standard method of the Japanese Chemotherapeutic Society [Chemotherapy, Vol. 23, Pages 1-2 (1975)], a culture obtained by cultivating bacteria in Heart Infusion broth (manufactured by Eken Kagakusha) at 37° C. for 20 hours was inoculated into a Heart Infusion agar medium (manufactured by Eiken Kagakusha) and cultivated at 37° C. for 20 hours, after which the growth of bacteria was examined visually. The minimum inhibitory concentration at which the bacterial growth was inhibited was taken as MIC (μg/ml). The amount of the inoculated bacteria was 10^4 cells/plate (10^6 cells/ml).

[2] = system: E. coli TK3 (Penicillinase-producing bacteria); assay: Antibacterial activity (MIC, agar plate)
Experimental: as §1

Kl. pneumoniae Y-50 = assay: Antibacterial activity (MIC, agar plate); settings: 37° C., 20 hours
Experimental: as §1

Klebsiella spp Y-72 = assay: Antibacterial activity (MIC, agar plate); settings: Klebsiella spp Y-72, 10^4 cells/plate, 37° C., 20 hours
Experimental: as §1

Ent. cloacae IID977 = assay: Antibacterial activity (MIC, agar plate); settings: 10^4 cells/plate, 37° C., 20 hours
Experimental: as §1

Al. faecalis B-1 = assay: Antibacterial activity (MIC, agar plate)
Experimental: as §1

Pro. mirabilis T-100 = assay: Antibacterial activity (MIC, agar plate); settings: 37° C., 20 hours
Experimental: as §1

Pro. mirabilis T-111 = assay: Antibacterial activity (MIC, agar plate)
Experimental: as §1

Kl. pneumoniae Y-41 = assay: Antibacterial activity (MIC, agar plate)
Experimental: as §1

Ser. marcescens IID620 = assay: Antibacterial activity (MIC, agar plate)
Experimental: as §1

Pro. morganii T-216 = assay: Antibacterial activity (MIC, agar plate)
Experimental: as §1

Aci. calcoaceticus A-6 = assay: Antibacterial activity (MIC, agar plate); settings: 37° C., 20 hours
Experimental: as §1

E. coli NIHJ = assay: Antibacterial activity (MIC, agar plate, standard method of the Japanese Chemotherapeutic Society); settings: 10^4 cells/plate, 37° C., 20 hours
Experimental: as §1

[3] = E. coli TK3 (penicillinase-producing), 10^4 cells/plate, 37° C., 20 hours
[4] = Pro. mirabilis T-111, 10^4 cells/plate, 37° C., 20 hours
[5] = Kl. pneumoniae Y-41, 10^4 cells/plate, 37° C., 20 hours
[6] = Klebsiella pneumoniae, Y50, 10^4 cells/plate, read-out: MIC
[7] = Enterobacter cloacae, read-out: MIC
[8] = Alcaligenes faecalis, B1, Al. faecalis B-1, 10^4 cells/plate, 37° C., 20 hours, read-out: MIC
[9] = Proteus mirabilis, T100, 10^4 cells/plate, read-out: MIC
[10] = Klebsiella pneumoniae, Y41, Kl. pneumoniae Y-41, 10^4 cells/plate, 37° C., 20 hours, read-out: MIC
[11] = Serratia marcescens, IID620, 20 h
[12] = Morganella morganii, T216, 20 h
[13] = Acinetobacter calcoaceticus, A6, 10^4 cells/plate, read-out: MIC
[14] = Escherichia coli, read-out: MIC
[15] = Proteus vulgaris, Pro. vulgaris GN76 (cephalosporinase-producing), 10^4 cells/plate, 37° C., 20 hours, read-out: MIC
[16] = Serratia marcescens, Ser. marcescens IID620, 10^4 cells/plate, 37° C., 20 hours, read-out: MIC
[17] = Morganella morganii, T216, Pro. morganii T-216, 10^4 cells/plate, 37° C., 20 hours, read-out: MIC
[18] = Proteus mirabilis, T111, Pro. mirabilis T-111, 10^4 cells/plate, 37° C., 20 hours, read-out: MIC
[19] = Klebsiella pneumoniae, Y41, 20 h

SMILES	MIC ([2]; Escherichia coli, 20 h) [mg/L]	MIC (Kl. pneumoniae Y-50; [6]) [mg/L]	MIC (Ent. cloacae IID977; [7]) [mg/L]	MIC (Al. faecalis B-1; [8]) [mg/L]	MIC (Pro. mirabilis T-100; [9]) [mg/L]	MIC (Pro. mirabilis T-111; Proteus mirabilis, T111, 20 h) [mg/L]	MIC (Kl. pneumoniae Y-41; [10]) [mg/L]	MIC (Pro. morganii T-216; [12]) [mg/L]	MIC (Aci. calcoaceticus A-6; [13]) [mg/L]	MIC (E. coli NIHJ; [14]) [mg/L]	MIC [1, 15] [mg/L]	further results
CO/N=C(\C(=O)NC1C(=O)N2C(C(=O)O)=C(Cn3cnc(NC(C)=O)n3)CS[C@H]12)c1csc(N)n1.O=C(O)C(F)(F)F (stereo partly drawn) [A, Trifluoroacetic acid salt of 7-[2-(2-aminothiazol-4-yl)-2-(syn)-methoxyiminoacetamido]-3-[(3-acetamido-1,2,4-triazolyl)methyl]-Δ^3-cephem-4-carboxylic acid]	–	–	–	–	–	–	–	–	–	–	–	MIC ([1]; Pro. vulgaris GN76 (cephalosporinase-producing), 10^4 cells/plate, 37° C., 20 hours): 3.13 mg/L; MIC [2, 3]: 0.39 mg/L; MIC (Kl. pneumoniae Y-50; 10^4 cells/plate): ≤ 0.1 mg/L; MIC (Klebsiella spp Y-72): 6.25 mg/L; MIC (Ent. cloacae IID977): 6.25 mg/L; MIC (Al. faecalis B-1; Al. faecalis B-1, 10^4 cells/plate, 37° C., 20 hours): 50 mg/L; MIC (Pro. mirabilis T-100; 10^4 cells/plate): ≤ 0.1 mg/L; MIC (Pro. mirabilis T-111; [4]): 0.2 mg/L; MIC (Kl. pneumoniae Y-41; [5]): 0.2 mg/L; MIC (Ser. marcescens IID620; Ser. marcescens IID620, 10^4 cells/plate, 37° C., 20 hours): 0.78 mg/L; MIC (Pro. morganii T-216; Pro. morganii T-216, 10^4 cells/plate, 37° C., 20 hours): 0.2 mg/L; MIC (Aci. calcoaceticus A-6; 10^4 cells/plate): 25 mg/L; MIC (E. coli NIHJ): ≤ 0.1 mg/L
CO/N=C(\C(=O)NC1C(=O)N2C(C(=O)O)=C(CNC(=O)c3ccco3)CSC12)c1csc(N)n1 (stereo not drawn) [B, Trifluoroacetic acid salt of 7-[2-(2-aminothiazol-4-yl)-2-(syn)-methoxyiminoacetamido]-3-(furan-2-yl-carboxamido)methyl-Δ^3-cephem-4-carboxylic acid]	0.39	≤ 0.1	25	12.5	≤ 0.1	0.2	0.2	0.39	25	≤ 0.1	–	MIC ([1]; Proteus vulgaris, GN76, 20 h): 0.78 mg/L; MIC (Klebsiella spp Y-72; Y72, read-out: MIC): 1.56 mg/L; MIC (Ser. marcescens IID620; [11]): 0.2 mg/L
CO/N=C(\C(=O)NC1C(=O)N2C(C(=O)O)=C(CNC(C)=O)CSC12)c1csc(N)n1 (stereo not drawn) [C, Trifluoroacetic acid salt of 7-[2-(2-aminothiazol-4-yl)-2-(syn)-methoxyiminoacetamido]-3-acetamidomethyl-Δ^3-cephem-4-carboxylic acid]	0.39	≤ 0.1	50	12.5	≤ 0.1	0.39	0.2	–	12.5	≤ 0.1	6.25	MIC (Klebsiella spp Y-72; Y72, read-out: MIC): 6.25 mg/L; MIC (Ser. marcescens IID620; [16]): 1.56 mg/L; MIC (Pro. morganii T-216; [17]): 0.78 mg/L
Cc1nnc(SCC2=C(C(=O)O)N3C(=O)[C@@H](NC(=O)Cn4cnnn4)[C@H]3SC2)s1 [Cephazoline, reference compound]	–	1.56 (≈ 3.43 µM)	> 200	100 (≈ 220 µM)	–	–	3.13 (≈ 6.89 µM)	–	200 (≈ 440 µM)	1.56 (≈ 3.43 µM)	> 200	MIC ([2]; Escherichia coli, E. coli TK3 (penicillinase-producing), 10^4 cells/plate, 37° C., 20 hours, read-out: MIC): 25 mg/L (≈ 55 µM); MIC (Klebsiella spp Y-72; Y72, read-out: MIC): > 200 mg/L; MIC (Pro. mirabilis T-111; [18]): 6.25 mg/L (≈ 13.8 µM); MIC (Ser. marcescens IID620; [16]): > 200 mg/L; MIC (Pro. morganii T-216; [17]): > 200 mg/L
CO/N=C(\C(=O)NC1C(=O)N2C(C(=O)O)=C(Cn3ncnn3)CSC12)c1csc(N)n1 (stereo not drawn) [F, Trifluoroacetic acid salt of 7-[2-(2-aminothiazol-4-yl)-2-(syn)-methoxyiminoacetamido]-3-[2-(1,2,3,4-tetrazolyl)methyl]-Δ^3-cephem-4-carboxylic acid]	≤ 0.1	≤ 0.1	12.5	–	–	≤ 0.1	≤ 0.1	≤ 0.1	6.25	≤ 0.1	0.78	MIC (Al. faecalis B-1; Alcaligenes faecalis, B1, 20 h): 3.13 mg/L; MIC (Ser. marcescens IID620; [11]): 0.39 mg/L
CO/N=C(\C(=O)NC1C(=O)N2C(C(=O)O)=C(Cn3cnnn3)CSC12)c1csc(N)n1 (stereo not drawn) [G, Trifluoroacetic acid salt of 7-[2-(2-aminothiazol-4-yl)-2-(syn)-methoxyiminoacetamido]-3-[1-(1,2,3,4-tetrazolyl)methyl]-Δ^3-cephem-4-carboxylic acid]	0.39	≤ 0.1	6.25	12.5	–	0.2	0.2	0.2	25	≤ 0.1	–	MIC ([1]; Proteus vulgaris, GN76, 20 h): 0.78 mg/L; MIC (Ser. marcescens IID620; [16]): 1.56 mg/L
CO/N=C(\C(=O)NC1C(=O)N2C(C(=O)O)=C(Cn3nnc(N)n3)CSC12)c1csc(N)n1 (stereo not drawn) [H, Trifluoroacetic acid salt of 7-[2-(2-aminothiazol-4-yl)-2-(syn)-methoxyiminoacetamido]-3-[2-(5-amino-1,2,3,4-tetrazolyl)methyl]-Δ^3-cephem-4-carboxylic acid]	0.78	0.2	12.5	12.5	–	0.39	0.39	0.78	25	≤ 0.1	1.56	MIC (Ser. marcescens IID620; [11]): 0.78 mg/L
CO/N=C(\C(=O)NC1C(=O)N2C(C(=O)O)=C(Cn3nnc(NC(C)=O)n3)CSC12)c1csc(N)n1 (stereo not drawn) [I, Trifluoroacetic acid salt of 7-[2-(2-aminothiazol-4-yl)-2-(syn)-methoxyiminoacetamido]-3-[2-(5-acetamido-1,2,3,4-tetrazolyl)methyl]-Δ^3-cephem-4-carboxylic acid]	0.39	≤ 0.1	–	–	≤ 0.1	≤ 0.1	–	–	–	≤ 0.1	–	MIC (Kl. pneumoniae Y-41; [19]): 0.2 mg/L
CO/N=C(\C(=O)NC1C(=O)N2C(C(=O)O)=C(Cn3nnc(C)n3)CSC12)c1csc(N)n1 (stereo not drawn) [J, Trifluoroacetic acid salt of 7-[2-(2-aminothiazol-4-yl)-2-(syn)-methoxyiminoacetamido]-3-[2-(5-methyl-1,2,3,4-tetrazolyl)methyl]-Δ^3-cephem-4-carboxylic acid]	0.39	≤ 0.1	–	–	≤ 0.1	–	–	–	–	≤ 0.1	–	MIC (Pro. mirabilis T-111; [18]): 0.2 mg/L; MIC (Kl. pneumoniae Y-41; [19]): ≤ 0.39 mg/L
CCc1nnn(CC2=C(C(=O)O)N3C(=O)C(NC(=O)/C(=N\OC)c4csc(N)n4)C3SC2)n1 (stereo not drawn) [K, Trifluoroacetic acid salt of 7-[2-(2-aminothiazol-4-yl)-2-(syn)-methoxyiminoacetamido]-3-[2-(5-ethyl-1,2,3,4-tetrazolyl)methyl]-Δ^3-cephem-4-carboxylic acid]	0.39	0.2	–	–	≤ 0.1	0.78	0.78	–	–	≤ 0.1	–	–
CO/N=C(\C(=O)NC1C(=O)N2C(C(=O)O)=C(Cn3cnc(Cl)n3)CS[C@H]12)c1csc(N)n1.O=C(O)C(F)(F)F (stereo partly drawn) [L, Trifluoroacetic acid salt of 7-[2-(2-aminothiazol-4-yl)-2-(syn)-methoxyiminoacetamido]-3-[(3-chloro-1,2,4-triazolyl)methyl]-Δ^3-cephem-4-carboxylic acid]	–	–	–	–	–	–	–	–	–	–	–	MIC [2, 3]: 0.39 mg/L; MIC (Kl. pneumoniae Y-50; 10^4 cells/plate): ≤ 0.1 mg/L; MIC (Pro. mirabilis T-100; 10^4 cells/plate): ≤ 0.1 mg/L; MIC (Pro. mirabilis T-111; [4]): 0.78 mg/L; MIC (Kl. pneumoniae Y-41; [5]): 0.39 mg/L; MIC (E. coli NIHJ): ≤ 0.1 mg/L
CC(=O)Nc1nnn(CC2=C(C(=O)O)N3C(=O)C(NC(=O)Cc4csc(N)n4)C3SC2)n1 (stereo not drawn) [M, Trifluoroacetic acid salt of 7-[2-(2-aminothiazol-4-yl)acetamido]-3-[2-(5-acetamido-1,2,3,4-tetrazolyl)methyl]-Δ^3-cephem-4-carboxylic acid]	1.56	0.78	–	–	0.39	0.78	0.78	–	–	0.39	–	–
Nc1nc(CC(=O)NC2C(=O)N3C(C(=O)O)=C(Cn4ncnn4)CSC23)cs1 (stereo not drawn) [N, Trifluoroacetic acid salt of 7-[2-(2-aminothiazol-4-yl)acetamido]-3-[2-(1,2,3,4-tetrazolyl)methyl]-Δ^3-cephem-4-carboxylic acid]	1.56	0.39	–	–	0.39	0.78	0.78	–	–	0.39	–	–
